Results taken from patent publication US10722484B2, “Methods of cancer treatment” (K-Gen, Inc., priority 2016, dated 2020).
Like-named read-outs stand apart in the source and are kept apart here.

How the values were obtained:
HCT116 = test: Proliferation assay (CellTiter Glo); assay type: cell-based; details: 96 hours
Description: (§1) The dose range for most compounds was 4.6 nM-30 μM. The dose ranges for some compounds were adjusted downward to 0.46 nM-3 μM or 0.08 nM-0.5 μM or 0.03 nM-0.2 μM. […] The results are shown in Tables 3-6 for pancreatic cancer, lung cancer, colon/gastric cancer, and leukemia.

AGS = test: Proliferation assay (CellTiter Glo); assay type: cell-based; details: 96 hours
Description: as §1

H727 = test: Proliferation assay (CellTiter Glo); assay type: cell-based; details: 96 hours
Description: as §1

Capan-1 = test: Proliferation assay (CellTiter Glo); assay type: cell-based; details: 96 hours
Description: as §1

Pan2.03 = test: Proliferation assay (CellTiter Glo); assay type: cell-based; details: 96 hours
Description: as §1

LS180 = test: Proliferation assay (CellTiter Glo); assay type: cell-based; details: 96 hours
Description: as §1

AsPC-1 = test: Proliferation assay (CellTiter Glo); assay type: cell-based; details: 96 hours
Description: as §1

Pan2.13 = test: Proliferation assay (CellTiter Glo); assay type: cell-based; details: 96 hours
Description: as §1

H358 = test: Proliferation assay (CellTiter Glo); assay type: cell-based; details: HE58, 96 hours
Description: as §1

CCRF-CEM = test: Proliferation assay (CellTiter Glo); assay type: cell-based; details: 96 hours
Description: as §1

KP-4 = test: Proliferation assay (CellTiter Glo); assay type: cell-based; details: 96 hours
Description: as §1

A549 = test: Proliferation assay (CellTiter Glo); assay type: cell-based; details: 96 hours
Description: as §1

SW620 = test: Proliferation assay (CellTiter Glo); assay type: cell-based; details: 96 hours
Description: as §1

H441 = test: Proliferation assay (CellTiter Glo); assay type: cell-based; details: 96 hours
Description: as §1

[1] = test system: leukemia inhibitory factor (LIF); test: Western blot analysis of PKC signaling pathway elements in A549 cells; assay type: cell-based; details: Western blot, concentrations of Table 8 (K101A 0.1, 0.5, […]; K101E […]; K102 0.1, 0.5 μM; K103 0.01 μM; Ref1 1 μM; Ref2 0.01 μM)
Description: Cancer cells (2-8 million cells) were seeded in 10 cm dishes and grown overnight. For A549 lung cancer cell line, about 3 million cells were seeded. Cells were then treated with different drugs at concentrations described in Table 8 for a period of time up to 48 hours. Cells were lysed in 0.3-0.5 mL of RIPA buffer (Sigma) supplemented with protease inhibitors (Roche) and phosphatase inhibitors (Sigma). Lysates were assayed for protein concentration using BCA kit (Pierce). Normalized amount of lysates (20-30 μg protein/lane) were run on 4-12% NuPage gel (Life Technologies) and the proteins were transferred to the PVDF or nitrocellulose membrane using iBlot® Transfer Stack (Life Technologies). The membranes were probed with primary antibodies shown in Table 9 at 4° C. overnight after blocking with 1×TBST containing 5% non-fat milk. Antibodies from other vendors could also be used in Western blot analysis. After washing 5 times with 1×TBS containing 0.1% Tween20, the membranes were probed with 2nd antibodies Anti-mouse IgG Dylight 800 conjugate or Anti-rabbit IgG DyLight 680 conjugate (1:10000; Cell signaling or similar IR 2nd antibodies from different vendors) at room temperature for one hour. After washing 5 times, the membranes were scanned using Odyssey® Imaging System (Licor Biosciences).

MiaPaCa-2 = test: Proliferation assay (CellTiter Glo); assay type: cell-based; details: 96 hours
THP1 = test: Proliferation assay (CellTiter Glo); assay type: cell-based, human; details: 96 hours
Description: as §1

HL60 = test: Proliferation assay (CellTiter Glo); assay type: cell-based, human; details: 96 hours
Description: as §1

CC(=O)OCC1=CC2C3C(C)(C)C3(OC(C)=O)CC(C)C2(O)C2C=C(C)C(=O)C2(O)C1 (centres unmarked) [Compound K101E]
EC50 (HCT116; HCT116 (K-RAS: G13D), absolute EC50, read-out: Ab EC50): > 30 µM
Top Inhibition % (HCT116; HCT116, % of top inhibition): 27.4%
EC50 (HCT116; HCT116, relative EC50, read-out: Re EC50): 6.64 µM
EC50 (AGS; AGS (gastric, K-RAS: G12D), absolute EC50, read-out: Ab EC50): > 30 µM
Top Inhibition % (AGS; AGS, % of top inhibition): 25.9%
EC50 (AGS; AGS, relative EC50, read-out: Re EC50): 4.38 µM
EC50 (H727; H727 (K-RAS: G12V), absolute EC50, read-out: Ab EC50): > 30 µM
Top Inhibition % (H727; H727, % of top inhibition): 49.1%
EC50 (H727; H727, relative EC50, read-out: Re EC50): 0.62 µM
EC50 (Capan-1; Capan-1 (K-RAS: G12V), absolute EC50, read-out: Ab EC50): > 30 µM
Top Inhibition % (Capan-1; Capan-1, % of top inhibition): 44.6%
EC50 (Capan-1; Capan-1, relative EC50, read-out: Re EC50): 0.83 µM
EC50 (Pan2.03; Pan2.03 (K-RAS: G12D), absolute EC50, read-out: Ab EC50): > 30 µM
Top Inhibition % (Pan2.03; Pan2.03, % of top inhibition): 36.5%
EC50 (Pan2.03; Pan2.03, relative EC50, read-out: Re EC50): 1.92 µM
EC50 (LS180; LS180 (K-RAS: G12D), absolute EC50, read-out: Ab EC50): > 30 µM
Top Inhibition % (LS180; LS180, % of top inhibition): 1.3%
EC50 (AsPC-1; AsPC-1 (K-RAS: G12D), absolute EC50, read-out: Ab EC50): > 30 µM
Top Inhibition % (AsPC-1; AsPC-1, % of top inhibition): 35.2%
EC50 (AsPC-1; AsPC-1, relative EC50, read-out: Re EC50): 2.78 µM
EC50 (Pan2.13; Pan2.13 (K-RAS: Q61H), absolute EC50, read-out: Ab EC50): > 0.2 µM
Top Inhibition % (Pan2.13; Pan2.13, % of top inhibition): 49.8%
EC50 (Pan2.13; Pan2.13, relative EC50, read-out: Re EC50): 0.044 µM
Top Inhibition % (H358; % of top inhibition): 47.9%
EC50 (H358; absolute EC50, read-out: Ab EC50): > 30 µM
EC50 (H358; relative EC50, read-out: Re EC50): 1.25 µM
EC50 (CCRF-CEM; CCRF-CEM (K-RAS: G12D), absolute EC50, read-out: Ab EC50): > 30 µM
Top Inhibition % (CCRF-CEM; CCRF-CEM, % of top inhibition): 34.3%
EC50 (CCRF-CEM; CCRF-CEM, relative EC50, read-out: Re EC50): 0.27 µM
EC50 (KP-4; KP-4 (K-RAS: G12C), absolute EC50, read-out: Ab EC50): 1.28 µM
Top Inhibition % (KP-4; KP-4, % of top inhibition): 69.1%
EC50 (KP-4; KP-4, relative EC50, read-out: Re EC50): 0.68 µM
EC50 (A549; A549 (K-RAS: G12S), absolute EC50, read-out: Ab EC50): 2.64 µM
Top Inhibition % (A549; A549, % of top inhibition): 78.7%
EC50 (A549; A549, relative EC50, read-out: Re EC50): 1.56 µM
EC50 (SW620; SW620 (K-RAS: G12V), absolute EC50, read-out: Ab EC50): > 30 µM
Top Inhibition % (SW620; SW620, % of top inhibition): 0.0%
EC50 (H441; H441 (K-RAS: G12V), absolute EC50, read-out: Ab EC50): > 30 µM
Top Inhibition % (H441; H441, % of top inhibition): 49.1%
EC50 (H441; H441, relative EC50, read-out: Re EC50): 2.61 µM
protein levels of the leukemia inhibitory factor (LIF) [1]: did not affect
EC50 (MiaPaCa-2; MiaPaCa-2 (K-RAS: G12C), absolute EC50, read-out: Ab EC50): 1.88 µM
Top Inhibition % (MiaPaCa-2; MiaPaCa-2, % of top inhibition): 61.4%
EC50 (MiaPaCa-2; MiaPaCa-2, relative EC50, read-out: Re EC50): 0.86 µM
EC50 (THP1; THP1 (N-RAS: G12D), absolute EC50, read-out: Ab EC50): 3.6 µM
Top Inhibition % (THP1; THP1, % of top inhibition): 51.6%
EC50 (THP1; THP1, relative EC50, read-out: Re EC50): 1.02 µM
EC50 (HL60; HL60 (N-RAS: Q61L), absolute EC50, read-out: Ab EC50): 3.05 µM
Top Inhibition % (HL60; HL60, % of top inhibition): 63.4%
EC50 (HL60; HL60, relative EC50, read-out: Re EC50): 1.92 µM
